According to PMC7753147, “High-throughput determination of protein affinities using unmodified peptide libraries in nanomolar scale” (iScience, 2020):

Columns and labels:
[1] = tested on: gephE; assay: µSPOT peptide microarray binding assay with recombinant gephE
[2] = tested on: FL-geph; assay: µSPOT peptide microarray binding assay with full-length geph
[3] = tested on: native geph; assay: µSPOT peptide microarray binding assay with native geph from mouse brain lysate
[4] = µSPOT peptide microarray, GlyRβ full positional scan, recombinant gephE, intensity normalised to wild-type sequence DLRSNDFSIVGSLPR (=1)
[5] = µSPOT peptide microarray, GlyRβ full positional scan, intensity normalised to wild-type sequence DLRSNDFSIVGSLPR (=1)
[6] = µSPOT peptide microarray, GlyRβ full positional scan, native geph from mouse brain lysate, intensity normalised to wild-type sequence DLRSNDFSIVGSLPR (=1)
[7] = µSPOT full positional scan of GlyRβ 15-mer DLRSNDFSIVGSLPR, intensity normalised to wild-type sequence (= 1)
[8] = µSPOT full positional scan of GlyRβ 15-mer DLRSNDFSIVGSLPR, native geph, intensity normalised to wild-type sequence (= 1)

Row | Sequence | gephE Binding Intensity [norm.] [1, 4] [norm.] | Fl-geph Binding Intensity [norm.] [2, 5] [norm.] | Native geph Binding Intensity [norm.] [3, 6] [norm.] | gephE Binding Intensity [norm.] [1, 7] [norm.] | Fl-geph Binding Intensity [norm.] [2, 7] [norm.] | Native geph Binding Intensity [norm.] [3, 8] [norm.]
1 | DLRSNDFSIVWSLPR [GlyRβ_Full_Positional_Scan_208, GlyR β 414-428 variant G424W] | 0.32 | 0.35 | 0.16 | – | – | –
2 | DLRSNDFSIVGVLPR [GlyRβ_Full_Positional_Scan_226] | – | – | – | 0.69 | 1.01 | 0.74
3 | DLRSNDFSGVGSLPR [GlyRβ_Full_Positional_Scan_162, GlyR β 414-428 variant I422G] | 0.56 | 0.53 | 0.34 | – | – | –
4 | DLRSNDVSIVGSLPR [GlyRβ_Full_Positional_Scan_126, GlyR β 414-428 variant F420V] | 0.52 | 0.76 | 0.38 | – | – | –
5 | DLRSNDFSFVGSLPR [GlyRβ_Full_Positional_Scan_167, GlyR β 414-428 variant I422F] | 0.51 | 0.76 | 0.27 | – | – | –
6 | DGRSNDFSIVGSLPR [GlyRβ_Full_Positional_Scan_022] | 0.98 | 0.94 | 0.92 | – | – | –
7 | DLHSNDFSIVGSLPR [GlyRβ_Full_Positional_Scan_053] | 1.01 | 1.21 | 1.37 | – | – | –
8 | DLRSKDFSIVGSLPR [GlyRβ_Full_Positional_Scan_094] | 0.92 | 0.79 | 0.66 | – | – | –
9 | DLRSNDFSISGSLPR [GlyRβ_Full_Positional_Scan_195, GlyR β 414-428 variant V423S] | 0.41 | 0.64 | 0.3 | – | – | –
10 | DLRSNDFSIVMSLPR [GlyRβ_Full_Positional_Scan_218, GlyR β 414-428 variant G424M] | – | – | – | 0.36 | 0.33 | 0.17
11 | DLRSNDFSRVGSLPR [GlyRβ_Full_Positional_Scan_172, GlyR β 414-428 variant I422R] | 0.57 | 0.62 | 0.16 | – | – | –
12 | DLRSNDFSIVGSLYR [GlyRβ_Full_Positional_Scan_269] | – | – | – | 0.78 | 0.71 | 0.59
13 | DLRSCDFSIVGSLPR [GlyRβ_Full_Positional_Scan_097] | 0.99 | 0.76 | 0.83 | – | – | –
14 | DLRSNDFSIHGSLPR [GlyRβ_Full_Positional_Scan_193, GlyR β 414-428 variant V423H] | 0.32 | 0.46 | 0.2 | – | – | –
15 | DLRSNMFSIVGSLPR [GlyRβ_Full_Positional_Scan_118] | 0.85 | 0.84 | 0.62 | – | – | –
16 | DLRSNDFSIVGDLPR [GlyRβ_Full_Positional_Scan_230] | – | – | – | 0.52 | 0.77 | 0.45
17 | DLMSNDFSIVGSLPR [GlyRβ_Full_Positional_Scan_058] | 0.77 | 1.3 | 1.59 | – | – | –
18 | DLRMNDFSIVGSLPR [GlyRβ_Full_Positional_Scan_078] | 1.02 | 1.08 | 1.07 | – | – | –
19 | DCRSNDFSIVGSLPR [GlyRβ_Full_Positional_Scan_037] | 0.95 | 0.9 | 1.22 | – | – | –
20 | DLRSNDLSIVGSLPR [GlyRβ_Full_Positional_Scan_124, GlyR β 414-428 variant F420L] | 0.58 | 0.69 | 0.44 | – | – | –
21 | DLRHNDFSIVGSLPR [GlyRβ_Full_Positional_Scan_073] | 0.92 | 0.84 | 0.86 | – | – | –
22 | DKRSNDFSIVGSLPR [GlyRβ_Full_Positional_Scan_034] | 0.88 | 0.94 | 0.53 | – | – | –

Row | Sequence | gephE Binding Intensity [norm.] [1, 4] [norm.] | Fl-geph Binding Intensity [norm.] [2, 5] [norm.] | Native geph Binding Intensity [norm.] [3, 6] [norm.] | gephE Binding Intensity [norm.] [1, 7] [norm.] | Fl-geph Binding Intensity [norm.] [2, 7] [norm.] | Native geph Binding Intensity [norm.] [3, 8] [norm.]
23 | DLRSNDFSIVGPLPR [GlyRβ_Full_Positional_Scan_225] | – | – | – | 0.51 | 0.7 | 0.25
24 | DLRSNDFYIVGSLPR [GlyRβ_Full_Positional_Scan_149, GlyR β 414-428 variant S421Y] | 0.7 | 0.85 | 0.27 | – | – | –
25 | DLRSNDFSIVGTLPR [GlyRβ_Full_Positional_Scan_236] | – | – | – | 0.94 | 0.98 | 1.05
26 | DLRSNDFSIVPSLPR [GlyRβ_Full_Positional_Scan_205, GlyR β 414-428 variant G424P] | 0.41 | 0.5 | 0.21 | – | – | –
27 | SLRSNDFSIVGSLPR [GlyRβ_Full_Positional_Scan_015] | 1.04 | 0.91 | 0.69 | – | – | –
28 | DLNSNDFSIVGSLPR [GlyRβ_Full_Positional_Scan_059] | 0.85 | 1.17 | 1.28 | – | – | –
29 | DLRSNDFMIVGSLPR [GlyRβ_Full_Positional_Scan_158, GlyR β 414-428 variant S421M] | 0.73 | 0.88 | 0.54 | – | – | –
30 | DLRWNDFSIVGSLPR [GlyRβ_Full_Positional_Scan_068] | 0.92 | 0.81 | 0.95 | – | – | –
31 | DLRSNDFSIVGLLPR [GlyRβ_Full_Positional_Scan_224] | – | – | – | 0.62 | 1.01 | 0.44
32 | DYRSNDFSIVGSLPR [GlyRβ_Full_Positional_Scan_029] | 0.95 | 0.84 | 0.73 | – | – | –
33 | LLRSNDFSIVGSLPR [GlyRβ_Full_Positional_Scan_004] | 1.18 | 1.1 | 0.66 | – | – | –
34 | DLRSNDFSIVGSSPR [GlyRβ_Full_Positional_Scan_255] | – | – | – | 0.84 | 1.08 | 0.85
35 | DLRSNDFLIVGSLPR [GlyRβ_Full_Positional_Scan_144, GlyR β 414-428 variant S421L] | 0.6 | 0.54 | 0.2 | – | – | –
36 | DDRSNDFSIVGSLPR [GlyRβ_Full_Positional_Scan_030] | 1.07 | 1.26 | 0.9 | – | – | –
37 | NLRSNDFSIVGSLPR [GlyRβ_Full_Positional_Scan_019] | 1.15 | 1 | 1.28 | – | – | –
38 | DLRSNDFSIVGSLER [GlyRβ_Full_Positional_Scan_271] | – | – | – | 0.32 | 0.75 | 0.28
39 | DLRSVDFSIVGSLPR [GlyRβ_Full_Positional_Scan_086] | 0.84 | 0.83 | 0.72 | – | – | –
40 | DLRSNDFSIVGSLVR [GlyRβ_Full_Positional_Scan_266] | – | – | – | 0.62 | 0.91 | 0.45
41 | DLRSNDFSIVGALPR [GlyRβ_Full_Positional_Scan_221] | – | – | – | 0.77 | 1.04 | 0.99
42 | DLRSNDFSIVGFLPR [GlyRβ_Full_Positional_Scan_227] | – | – | – | 0.64 | 0.88 | 0.37
43 | DLRSNDFSIPGSLPR [GlyRβ_Full_Positional_Scan_185, GlyR β 414-428 variant V423P] | 0.41 | 0.51 | 0.31 | – | – | –
